This note sets out measurements from US12528767B2, “HDAC6 inhibitors and uses thereof” (Eikonizo Therapeutics, Inc., priority 2019, dated 2026).

Like-named read-outs stand apart in the source and are kept apart here. Bounds are passed on as bounds.

One data set addresses T1, Full length Human HDAC6 (Homo sapiens, UniProt Q9UBN7).
T1 sequence (Q9UBN7 1-1215): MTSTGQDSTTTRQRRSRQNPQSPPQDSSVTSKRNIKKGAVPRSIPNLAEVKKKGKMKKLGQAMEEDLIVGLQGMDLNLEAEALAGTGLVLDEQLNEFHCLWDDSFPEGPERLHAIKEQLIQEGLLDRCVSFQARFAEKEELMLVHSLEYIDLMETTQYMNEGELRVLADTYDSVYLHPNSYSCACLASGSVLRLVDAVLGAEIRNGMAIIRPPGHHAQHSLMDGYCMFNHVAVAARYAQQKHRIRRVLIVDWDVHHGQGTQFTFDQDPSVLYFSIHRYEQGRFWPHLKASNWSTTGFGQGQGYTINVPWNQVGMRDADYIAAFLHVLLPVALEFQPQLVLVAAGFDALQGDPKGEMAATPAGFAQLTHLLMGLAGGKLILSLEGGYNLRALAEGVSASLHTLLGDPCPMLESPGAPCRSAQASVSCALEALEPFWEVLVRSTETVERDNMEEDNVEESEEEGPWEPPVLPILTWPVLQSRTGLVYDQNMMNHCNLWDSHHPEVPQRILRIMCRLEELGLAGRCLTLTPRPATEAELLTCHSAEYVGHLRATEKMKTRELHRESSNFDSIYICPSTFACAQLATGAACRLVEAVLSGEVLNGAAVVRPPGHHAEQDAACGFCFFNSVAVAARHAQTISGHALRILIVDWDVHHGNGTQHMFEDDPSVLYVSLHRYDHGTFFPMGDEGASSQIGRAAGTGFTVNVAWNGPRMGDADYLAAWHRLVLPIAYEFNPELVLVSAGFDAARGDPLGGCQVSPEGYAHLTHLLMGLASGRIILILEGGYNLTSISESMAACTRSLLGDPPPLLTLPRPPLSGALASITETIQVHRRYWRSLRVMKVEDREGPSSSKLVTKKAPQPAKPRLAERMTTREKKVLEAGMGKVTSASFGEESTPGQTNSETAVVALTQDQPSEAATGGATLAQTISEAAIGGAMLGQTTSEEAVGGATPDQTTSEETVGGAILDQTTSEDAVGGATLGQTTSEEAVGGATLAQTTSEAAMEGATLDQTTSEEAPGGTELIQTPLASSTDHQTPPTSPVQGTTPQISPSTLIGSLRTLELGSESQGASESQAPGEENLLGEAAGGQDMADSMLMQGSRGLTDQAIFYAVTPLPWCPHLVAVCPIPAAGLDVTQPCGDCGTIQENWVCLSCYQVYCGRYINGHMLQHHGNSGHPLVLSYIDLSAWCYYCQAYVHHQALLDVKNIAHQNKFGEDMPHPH
The following applies: for Selectivity (6 v 8) (fold): ratio of HDAC8 IC50/HDAC6 IC50.

A short description of data set [1]: Metabolic stability in liver microsomes: Mouse BL6. In kind it is in vitro ADME. The following applies: 1 μM compound, 0.3 mg/mL protein, NADPH, 37° C., read-out: Mouse BL6 Liver Microsome Stability Half-life. In general terms: Microsomes from liver hold many membrane-bound enzymes, among them those of drug oxidation.
Data set [2] in a line: In vivo assessment of brain penetration in mice (IV 1 mg/kg, plasma and brain levels). The following applies: mouse, BL/6 mice.
Data set [3] is described as follows: Plasma stability assay: mouse. It is filed as in vitro ADME. The following applies: 10 μM, 37° C.
The target in a further data set is T2, Full length Human HDAC8 (Homo sapiens, UniProt Q9BY41).
T2 sequence (Q9BY41 1-377): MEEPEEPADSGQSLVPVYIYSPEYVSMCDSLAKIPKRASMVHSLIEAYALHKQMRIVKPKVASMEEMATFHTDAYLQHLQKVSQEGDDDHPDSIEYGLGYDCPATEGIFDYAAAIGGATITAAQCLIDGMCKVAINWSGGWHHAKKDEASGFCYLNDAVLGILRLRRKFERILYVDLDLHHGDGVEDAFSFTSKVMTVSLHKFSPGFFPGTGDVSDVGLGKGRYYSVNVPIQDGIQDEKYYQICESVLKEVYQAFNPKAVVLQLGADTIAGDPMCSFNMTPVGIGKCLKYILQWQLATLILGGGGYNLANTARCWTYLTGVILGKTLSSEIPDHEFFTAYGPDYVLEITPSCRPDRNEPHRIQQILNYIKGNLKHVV

Data set [4] relates to histone H3 acetylation (acH3K9) in undifferentiated SH-SY5Y cells. The experiment in a line: Histone H3 acetylation in cells (Western immunoblot). It is filed as cell-based. The following applies: Homo sapiens, 4 hours, acetyl histone H3K9/histone H3 ratio. The method, then:
(§1) Compound EC50 Determination for Tubulin- and Histone H3 Acetylation in Cells
(§2) Estimation of the EC50 for exemplary compounds to alter target protein acetylation in undifferentiated SH-SY5Y cells was performed using standard Western immunoblotting methods. […] SH-SY5Y cells were grown to 90% confluency on sterile cell growth plates. 10 mM compound stocks prepared in DMSO and two-fold serial dilutions were prepared from the stock and applied to cells to achieve a 12-point concentration range in cell media from an upper limit of 10 μM to a lower limit of DMSO [zero compound].
(§3) Cells were incubated under normal growth conditions (37° C., 5% CO2) in the presence of compound for 4 hours, then media was aspirated and cells were rinsed two times with 1×DPBS with calcium and magnesium warmed to 37° C. Cells were frozen directly on the plates on a bed of dry ice for 5 min, then stored at −80° C. until protein extraction.
(§4) Protein extraction was performed in RIPA buffer (50 mM Tris-HCL pH 8.0, 150 mM NaCl, 0.5% sodium deoxycholate, 0.1% sodium dodecyl sulfate, 1% NP-40) supplemented with Pierce protease inhibitor mini tables (Thermofisher cat #A32953) exactly as described by the manufacturer. After thawing the plate on a bed of wet ice for 10 minutes, lysis buffer was added to each well (e.g. 100 μL per well of a 24-well plate) and cells scraped from the bottom of each well. Lysates were then sonicated over ice (40% power, 30 pulses of 1 second on, 2 seconds off), centrifuged at 16,000 g for 10 min at 4° C., and the clarified supernatant saved. Protein concentration was determined by BCA assay and at least 3 μg prepared per lane by combining lysate supernatant aliquot with 1/3 total volume of 3× gel loading buffer containing DTT (NEB Cat. #B7703S), heating for 5 minutes at 95° C., briefly centrifuging and then loading on an SDS-PAGE gel.
(§5) Proteins were resolved on a 4-20% Tris-Glycine gel and transferred to PVDF membrane using an iBlot2 dry transfer system. The membrane was then blocked for at least 30 minutes at room temperature in TBST containing 5% milk or 5% bovine serum albumin, then incubated overnight at 4° C. with a single primary antibody from the following table:
(§6) Following primary antibody incubation, membranes were washed, incubated in secondary antibody, washed and incubated in ECL prime western blotting detection reagent (Amersham #RPN223) with membrane exposure and ECL signal capture in a LI-COR Odyssey Imaging system. […] Subsequent densitometry of immunoreactive bands was performed using the ImageStudio software and Microsoft Excel resulting in the following ratios: acetylTubulin/Tubulin and acetyl histone H3K9/histone H3. Raw ratios were uploaded to GraphPad Prism v7.0 with EC50 values modeled using the variable slope equation for log-transformed data [log(agonist) vs response in Prism].
(In western blotting, separated proteins are transferred to a membrane and probed.)

Data set [5] has as its system tubulin acetylation (acTubK40) in undifferentiated SH-SY5Y cells. The experiment in a line: Tubulin acetylation in cells (Western immunoblot). It is filed as cell-based. Particulars: Homo sapiens, 4 hours, acetylTubulin/Tubulin ratio. As to the method:
as §1, §2, §3, §4, §5, §6

The nature of data set [6]: Plasma protein binding assay (Rapid Equilibrium Dialysis): mouse. On the set-up: dose or concentration left out as unconfirmed. Particulars: pH 7.4, RED, 5 hours at 37° C. It is filed as in vitro ADME.
A short description of data set [7]: in vitro. Particulars: human.
A short description of data set [8]: Cell viability in primary rat dorsal root ganglia (DRG). It is filed as cell-based.
Data set [9] is described as follows: in vitro. Particulars: human. The source holds these as a separate data set.
Data set [10] is described as follows: Metabolic stability in liver microsomes: Mouse CD1. Particulars: 1 μM compound, 0.3 mg/mL protein, NADPH, 37° C., read-out: Mouse CD1 Liver Microsome Stability Half-life. In kind it is in vitro ADME.
In another data set the target is T3, Full length Human HDAC10 (Homo sapiens, UniProt Q969S8).
T3 sequence (Q969S8 1-669): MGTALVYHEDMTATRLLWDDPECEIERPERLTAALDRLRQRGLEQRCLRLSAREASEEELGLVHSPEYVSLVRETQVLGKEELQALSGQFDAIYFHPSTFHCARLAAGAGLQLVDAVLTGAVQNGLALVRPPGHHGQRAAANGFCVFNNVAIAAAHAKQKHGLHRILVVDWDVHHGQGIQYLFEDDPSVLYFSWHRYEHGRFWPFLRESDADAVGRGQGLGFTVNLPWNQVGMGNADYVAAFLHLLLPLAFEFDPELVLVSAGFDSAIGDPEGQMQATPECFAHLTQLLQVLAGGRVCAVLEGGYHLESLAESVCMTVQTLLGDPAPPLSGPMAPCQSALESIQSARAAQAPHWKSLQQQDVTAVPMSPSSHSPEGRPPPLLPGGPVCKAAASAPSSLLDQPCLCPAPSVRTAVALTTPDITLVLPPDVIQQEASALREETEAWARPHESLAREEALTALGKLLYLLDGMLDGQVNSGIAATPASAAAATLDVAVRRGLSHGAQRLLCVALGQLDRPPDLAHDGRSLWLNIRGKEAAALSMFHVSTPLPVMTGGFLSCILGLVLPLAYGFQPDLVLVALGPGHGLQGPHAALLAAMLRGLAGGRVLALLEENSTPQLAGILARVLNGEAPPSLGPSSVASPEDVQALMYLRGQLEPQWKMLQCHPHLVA

The target in the next data set is T4, Human HDAC7 aa 518-end (Homo sapiens, UniProt Q8WUI4).
T4 sequence (Q8WUI4 518-952 limits assumed): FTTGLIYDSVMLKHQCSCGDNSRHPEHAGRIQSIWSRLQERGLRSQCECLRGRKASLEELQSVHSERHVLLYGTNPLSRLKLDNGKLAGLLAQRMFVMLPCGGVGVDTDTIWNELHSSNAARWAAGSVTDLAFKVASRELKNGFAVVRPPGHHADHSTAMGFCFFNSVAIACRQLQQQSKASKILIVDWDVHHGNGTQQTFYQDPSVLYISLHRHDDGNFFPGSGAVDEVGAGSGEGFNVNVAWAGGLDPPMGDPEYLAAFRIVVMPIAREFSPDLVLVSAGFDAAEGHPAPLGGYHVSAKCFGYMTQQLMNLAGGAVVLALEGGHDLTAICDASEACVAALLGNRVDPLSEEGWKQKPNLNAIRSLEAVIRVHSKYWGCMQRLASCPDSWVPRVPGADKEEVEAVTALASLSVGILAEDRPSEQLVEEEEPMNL

Broadly, the IC50 is the concentration at which inhibition is half-maximal. A word on the half-life: it is the time in which the quantity being followed falls by half. For orientation: EC50 means the concentration at which the effect is half-maximal. As a reminder, the fraction unbound is the share of the substance not bound to proteins or other matrix. Regarding `O=C(NO)c1ccc(CN2CCc3c([nH]c4ccccc34)C2)c(F)c1` [compound 46], the values for the IC50 at Full length Human HDAC6 and against Full length Human HDAC8 were 0.001 to 0.1 µM and 0.1 to 1 µM, respectively. Further, the “Selectivity (6 v 8) (fold)” value is recorded as 51 fold on Full length Human HDAC6 (Table 1, number) and “III (III: >10-100)” at Full length Human HDAC6 (Table 1, range class). Besides, the half-life at 1 μM in data set [1] was found to be 78.5 min. Also, the concentration at 15 min in [2] (brain, 15 min, read-out: Mouse Brain Conc (μM) at 15 min) came out at 0.15 µM; in data set [2] (plasma, 15 min, read-out: Mouse Plasma Conc (μM) at 15 min), 0.21 µM. For the same compound, the concentration at 60 min was 0.03 µM in [2] (brain, 60 min, read-out: Mouse Brain Conc (μM) at 60 min) and 0.05 µM in data set [2] (plasma, 60 min, read-out: Mouse Plasma Conc (μM) at 60 min). Also, in data set [2] (brain and plasma, brain:plasma, 15 min, read-out: Mouse B:P at 15 min), the Kp at 15 min was found to be 0.72. For the same compound, the Kp at 60 min in data set [2] (brain and plasma, brain:plasma, 60 min, read-out: Mouse B:P at 60 min) is 0.6. Moreover, the “Mouse Plasma Stability (% Remaining at 120 min)” value in data set [3] is given as 43.8%. In addition, the EC50 was more than 10 µM in data set [4] and 0.1 µM in data set [5]. This compound also had a fraction unbound at 5 h in data set [6] of 0.062.
The term viability denotes a read-out of living cells in per cent, often relative to untreated cells. As a reminder, the CC50 is the concentration giving 50% cytotoxicity. Take `O=C(CCCCCCC(=O)Nc1ccccc1)NO` [Vorinostat]: the viability at 4 h, 30 µM in the data set “in vitro [7]” amounted to 117 ± 7.5%. For the same compound, it took 0.39 µM to reach half-maximal cytotoxicity in data set [8] (CC50 at 72 h). Further, the viability at 48 h, 30 µM in “in vitro [9]” is 40.3 ± 1.8%.
Take `O=C(NO)c1cc(F)c2c(c1)CN(CC13CC4CC(CC(C4)C1)C3)C2` [compound 33]: the IC50 was 0.001 to 0.1 µM against Full length Human HDAC6; 0.001 to 0.1 µM at Full length Human HDAC6 (read-out: In vitro enzymatic IC50, HDAC Paralog 6, Table 2); 1 to 10 µM on Full length Human HDAC8; 1 to 10 µM at Full length Human HDAC8 (read-out: In vitro enzymatic IC50, HDAC Paralog 8, Table 2); 10 to 100 µM at Full length Human HDAC10; 1 to 10 µM on Human HDAC7 aa 518-end. Further, the “Selectivity (6 v 8) (fold)” value on Full length Human HDAC6 (Table 1, number) was 291.4 fold; at Full length Human HDAC6 (Table 1, range class) it was “IV (IV: >100-1000)”. In addition, the half-life at 1 μM in data set [10] stood at 7.1 min.
